Experimental data as given in patent US11564875B2, “Cosmetic composition for skin regeneration” (Amorepacific Corporation, priority 2018, dated 2023).

Columns and labels:
[1] = system: AQP3, PPAR-α, PPAR-β, K5, and K14 gene level in human keratinocyte cell line (HaCaT cells); experiment: Skin regeneration effect after ultraviolet (UV) irradiation: gene level changes in UVA-irradiated HaCaT cells; assay type: cell-based; conditions: for skin regeneration effect: HaCaT cells
From the text: A human keratinocyte cell line (HaCaT cells) was irradiated with ultraviolet (UVA) (2 J/cm^2, 3 J/cm^2) and then, treated with a compound represented by Chemical Formula 1-1 (camellenodiol), which was obtained by extracting 10 kg of dry camellia powder with water-soluble ethanol and subsequently, performing filtration, concentration under a reduced pressure, and purification by using HP-20 and silica chromatography, to exam AQP3, PPAR-α, PPAR-β, K5, and K14 gene level changes, and the results are shown in FIGS. 1 to 4.

[2] = Cytotoxicity evaluation using a serum-free media; assay type: cell-based
Method: A cytotoxicity evaluation of the compound represented by Chemical Formula 1-1 was twice performed by using a serum-free media, and the results are shown in FIGS. 5 and 6. Referring to FIGS. 5 and 6, a significant cytotoxicity concentration of the compound represented by Chemical Formula 1-1 was 20 μM (cell viability<80%).

CC1(C)CC[C@]2(O)C(=O)C[C@]3(C)C(=CC[C@@H]4[C@@]5(C)CC[C@H](O)C(C)(C)[C@@H]5CC[C@]43C)[C@@H]2C1 [Chemical Formula 1-1, camellenodiol]
levels of the genes (AQP3, PPAR-α, PPAR-β, K5, K14) ([1]; HaCaT cells after UVA irradiation (2 J/cm^2, 3 J/cm^2), compound at 5 μM to 10 μM, specifically 7.5 μM, FIGS. 1 to 4): significantly increased
skin regeneration effect ([1]; UVA 2 J/cm^2, compound at 7.5 μM to 10 μM): excellent skin regeneration effect
skin regeneration effect ([1]; UVA 3 J/cm^2, compound at 5 μM to 7.5 μM): excellent skin regeneration effect
cell viability ([2]; at 20 μM): < 80%
significant cytotoxicity concentration ([2]; performed twice, criterion cell viability<80%, FIGS. 5 and 6): 20 µM
